Results: US20140096445A1, “METHOD OF CULTIVATION IN WATER DEFICIT CONDITIONS” (SYNGENTA PARTICIPATIONS AG, priority 2011, published 2014)
Marks after values point to notes of the source that are not given here.

Legend:
Assay type in all cases: in vivo
[1] = tested on: corn; experiment: Greenhouse sub-surface chemigation, yield and root architecture under deficit water, Examples 20-23; conditions: for Yield (% difference from UTC) / Relative number of fine roots (% difference from UTC): sub-surface chemigation at V3/V4, maximum labeled rates, 50% plant-available water; for Relative number of fine roots (% difference from UTC): within 2 weeks of harvest; for Yield compared with the control, statistical statement: sub-surface chemigation, abiotic stress, P values <0.001 at the 95th percentile confidence interval
Text: (§1) In this experiment, standardized growth conditions were applied across all corn treatments including: soil-water availability, soil texture and composition, soil chemical and physical properties, meteorological and environmental parameters, and plant nutrition in a greenhouse. No indication of plant disease or pest damage was observed over the course of the study and no pest management program was necessary. A homogeneous sand-organic matter soil mixture (0.18% organic matter) was used as the growth medium in 55-gal containers. These containers were used as a weighing lysimeter, where daily changes in system weight were used to calculate plant transpiration. Four corn plants were grown in each 55-gal container. Three 55-gal containers (12 plants total) made up each treatment. All irrigation and chemical treatments were applied via sub-surface irrigation. Chemical treatments consisted of: azoxystrobin (Quadris), paclobutrazol (Trimmit), trinexapac-ethyl (Moddus), and propiconazole (Tilt) at maximum labeled rates.
(§2) Corn plants were grown from seed and transplanted in the 55-gal drums approximately 14 days after planting. Uniform adequate irrigation was applied up to growth stage V3/V4 to ensure plant establishment. Chemical treatment applications were applied at growth stage V3/V4 via sub-surface chemigation. At stage V3/V4, irrigation was decreased to replicate deficit water conditions across all treatments for the remainder of the study period. Irrigation was managed daily to maintain 50% plant-available water. Visual signs of abiotic plant stress were observed approximately 30 days after chemical application. All corn plants were grown to yield and cobs were harvested when kernels were uniformly dry (15% moisture content). Root architecture, specifically relative number of fine roots, was measured at within 2 weeks of harvest using a digital imaging technique. Fine roots are related to water uptake productivity, which is directly tied to the ability of the plant to access soil-water under stress.

[2] = tested on: corn; experiment: SDI chemigation field study on grain yield under rainfed conditions, Examples 17-19; conditions: for Yield: optimum nitrogen rate 200 lbs. N/acre
Experimental: A chemigation study using Subsurface Drip Irrigation (SDI) was conducted to quantify the impact of treatment effects on grain yield under rainfed conditions. The field study was set up as a randomized complete plot design (split plot) with three replications on silt loam soil. Each plot was 8 rows wide (6.1 meters) by 34 meters long. Soil water status was monitored on an hourly basis every 30 cm up to 1.2 meters throughout the growing season using soil moisture sensors. Corn seed was planted with a precision planter at a depth of 2 inches and rows spaced at 30 inches. The planting population was 30,000 seeds per acre. Testing parameters and harvesting were conducted according to the University of Nebraska experimental procedure (see, e.g.,: Irmak, S, D. Z. Haman, and R. Bastug. Determination of Crop Water Stress Index for irrigation Timing and Yield Estimation of Corn. 2000. Agronomy Journal. 92:1221-1227). Moisture levels, evapotranspiration, and plant health were measured throughout the growing season. All microclimatic variables were measured (air temperature, rainfall, solar and net radiation, relative humidity, rainfall, wind speed and direction) so that the researcher could quantify the range of the microclimatic conditions under which this research was conducted to define the boundaries of experimental conditions.
No irrigation was applied to rainfed plots. […] Maintenance crop protection products were applied as needed to manage weeds and pests throughout the season for all treatments including the control. Azoxystrobin (Quadris) was applied twice via drip irrigation at a rate of 0.8 fl. oz/1000 linear ft (261 gai/ha) or by foliar application (tractor mounted sprayer) at 14 fl. oz./acre (261 gai/ha) at approximately the V6 & R1 stages of the corn. Moddus (trinexapac-ethyl) was foliar-applied (tractor mounted sprayer) once at a rate of 250 gai/ha at approximately the V7 stage of the corn. Crop yield from each replication was recorded after harvest and adjusted to 15.5% moisture content.

[3] = tested on: corn; experiment: Greenhouse subsurface drip irrigation trial, deficit irrigated, Examples 4-8; conditions: for % Yield Increase by Product over Untr./50% Irr. / Yield: SDI chemigated at V3/V4, 50% irrigated deficit, Azoxystrobin 261, PPZ 126, TXP 250, PBZ 12.5, TMX 70 gai/ha; for Yield compared with the control, in words: water stress regime (50% irrigated), SDI
Experimental: as §1, with “A greenhouse subsurface drip irrigation trial was conducted on corn to evaluate treatment effects on yield in fully irrigated vs. deficit irrigated conditions. In” for “In”
as §2

[4] = 250 gai/ha, foliar applied once (V7), 0% irrigated

Structure (SMILES) | Yield (% difference from UTC) [1] | Relative number of fine roots (% difference from UTC) [1] | Yield compared with the control, statistical statement [1] | % Yield Increase by Product over Untr./0% irr. [2, 4] | Yield [2, 4] [Bu./acre] | % Yield Increase by Product over Untr./50% Irr. [3] | Yield [3] | Yield compared with the control, in words [3] | Yield ([2]; 261 gai/ha, SDI chemigated (V6 & R1), 0% irrigated dryland/rainfed) [Bu./acre] | % Yield Increase by Product over Untr./0% irr. ([2]; 261 gai/ha, SDI chemigated, 0% irrigated dryland/rainfed) | Yield ([2]; 261 gai/ha, foliar applied (V6 & R1), 0% irrigated dryland/rainfed) [Bu./acre] | % Yield Increase by Product over Untr./0% irr. ([2]; 261 gai/ha, foliar applied, 0% irrigated dryland/rainfed)
CCOC(=O)C1CC(=O)C(=C(O)C2CC2)C(=O)C1 (stereo not drawn) [TXP, trinexapac-ethyl] | 15.6† % | 34.3† % | statistically different from the control | +4% incr over Untr./0% irr. | 141.9 | +15.6% Incr. over Untr./50% Irr. | 2133† Kg/Ha | statistically higher than the control | – | – | – | –
CO/C=C(/C(=O)OC)c1ccccc1Oc1cc(Oc2ccccc2C#N)ncn1 [Azoxystrobin, azoxystrobin] | 12.5† % | 37.3† % | statistically different from the control | – | – | +12.5% Incr. over Untr./50% Irr. | 2077† Kg/Ha | statistically higher than the control | 145.4 | +7% incr over Untr./0% irr. | 151.1 | +11% incr over Untr./0% irr.
